Experimental data from patent US20150141460A1, “Anti-inflammatory Compositions” (Cambridge Enterprise Limited, priority 2007, published 2015).

Experiments:
[1] = tested on: chemokine-induced migration; experiment: BSCI potency: inhibition of chemokine-induced migration in vitro (general statements); type: cell-based
[2] = tested on: LPS-induced TNF-α production; experiment: Sub-lethal LPS-induced endotoxemia in mice, serum TNF-α by ELISA; type: in vivo; details: mice; doses above 1 μg/mouse; subcutaneous or oral route
Protocol: FIGS. 5A-5E show representative dose response curves for the inhibition of LPS induced TNF-α production in vivo in a murine model of sub-lethal endotoxemia. In each experiment, groups of six mice received pre-treatment with the five compounds (FIG. 5A: (II); FIG. 5B: (III); FIG. 5C: (V); FIG. 5D: (I′) and FIG. 5E: (IV)) at various doses, via either the oral route (circles) or subcutaneous route (triangles). 30-60 mins later, animals were challenged with LPS via the intraperitoneal route, and serum was prepared from a terminal bleed 3 hours later. The level of TNF-α in the blood was measured by ELISA, and the degree of inhibition of LPS-induced TNF-α production (calculated as the concentration of TNF-α in mice exposed to LPS minus the concentration of TNF-α in mice which received a sham exposure to endotoxin-free PBS) is shown on the Y-axis of each graph as the mean of six animals, with whiskers representing SEMs. The concentration of TNF-α in mice receiving LPS but no BSCI treatment was typically 5,000 to 6,000 pg/ml on average (compared to <10 pg/ml in unchallenged mice). The ED50 was estimated by linear interpolation of the presented graphs. The X-axis of each graph represents the dose of each compound administered to each mouse in the group in units of mg (1E-07 to 1).
In this assay, mice are given a non-specific pro-inflammatory challenge using bacterial endotoxin (LPS), and the extent of the systemic inflammatory response (measured by serum levels of the central pro-inflammatory cytokine TNF-α, which is essentially absent from the blood under normal conditions, but is rapidly elevated in response to a wide range of inflammatory stimuli). We have selected this model even though it is not, itself, a particularly close model of any human inflammatory disease condition, but because TNF-α is known to be important in very many diseases (including rheumatoid arthritis, autoimmune disorders, Crohn's Disease, atherosclerosis, asthma and many more). Consequently, agents which suppress TNF-α production are already used clinically (e.g. Enbrel™ and other anti-TNF-α antibody products) to treat a wide range of such diseases.
Mice (in groups of 6) were pretreated with various doses of each compound, either by the subcutaneous route 30 mins prior to LPS challenge, or by the oral route (via gavage) 60 mins prior to LPS. The mice were then challenged with an intraperitoneal injection of 750 μg of bacterial LPS and sacrificed 3 hours later. Serum was prepared from a terminal bleed by cardiac puncture, and the concentration of TNF-α is determined by ELISA (R&D Systems). In each experiment, a group of 6 mice receive no LPS to act as a negative control, and a second group receive only LPS (with no candidate inhibitor). […]

[3] = biological target: target receptor (site of specific interaction of BN83250) (Homo sapiens, UniProt P30874); experiment: Competition for binding of [3H]-BN83250 to the target receptor on human myelomonocytic cell line; details: competition with 10 nM [3H]-BN83250; non-linear modelling
Protocol: In this experiment, each reaction received 10 nM labelled BN83250 (a lactam BSCI which binds to the same receptor as compound (I′)), together with various competitors (100 μM-1 pM). The total specific binding was the amount displaced by a large excess (100 μM). Each bar represents the mean of three replicate determinations, with whiskers representing SEM. The Y-axis represents the radioactive counts bound in each experiments in units of counts per minute (cpm). The upper dashed line represents the total binding under the conditions of the experiment, while the lower dashed line represents the non-specific binding; the specific binding is represented by the distance between the dashed lines.
The general pharmacology of the five compounds was assessed, both against the specific target receptor, and against a wide variety of other receptors, many related in structure to the target receptor. Specific binding to the target receptor was assessed by competition for the binding of [^3H]-BN83250 (BN83250 is (S)-3-(2′,2′-dimethyldodecanoylamino)-caprolactam; Fox et al. J Med Chem. […]; 48(3):867-74; an agent known to bind to the same target receptor as the lactam BSCIs disclosed here). Binding to non-target receptors was assessed by competition for the binding of various specific radioligands for other receptors which are well known in the art. […]

target receptor (site of specific interaction of BN83250), sequence (P30874 whole entry): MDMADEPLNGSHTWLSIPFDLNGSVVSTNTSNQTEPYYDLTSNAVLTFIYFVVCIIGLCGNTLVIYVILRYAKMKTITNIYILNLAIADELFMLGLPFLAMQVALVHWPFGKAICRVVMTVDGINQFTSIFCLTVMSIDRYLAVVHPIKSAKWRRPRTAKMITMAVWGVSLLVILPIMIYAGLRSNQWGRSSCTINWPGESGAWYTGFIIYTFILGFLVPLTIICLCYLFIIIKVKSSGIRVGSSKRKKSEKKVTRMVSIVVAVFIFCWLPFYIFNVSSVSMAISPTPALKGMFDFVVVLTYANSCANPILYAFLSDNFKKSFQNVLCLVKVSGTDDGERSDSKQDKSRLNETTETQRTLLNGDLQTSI

SMILES: CC(C)(C)C(=O)N[C@H]1CCCNC1=O [Compound (I′), (S)-3-(2′,2′-dimethylpropanoylamino)-tetrahydropyridin-2-one]
- potency as a BSCI, fold more potent than the (R)-enantiomer [1]: 5-25 fold
- suppression of LPS-induced TNF-α levels [2]: more than 90%
- Ka at target receptor (pM) [3]: 50 pM
